Data published in ChEMBL document CHEMBL6071160, “Identification of a novel 10-hydroxyevodiamine prodrug as a potent topoisomerase inhibitor with improved aqueous solubility for treatment of hepatocellular carcinoma” (Eur J Med Chem, 2024).
The source made the active and inactive calls. The rule behind the calls is not given here.

Columns and labels:
Huh-7 [1] = assay: Antiproliferative activity against human Huh-7 cells assessed as inhibition of cell proliferation incubated for 72 hrs by MTT assay; type: functional, cell-based; conditions: Huh-7, 72 h
[2] = Aqueous solubility of the compound […] measured after 72 hrs in shaking by HPLC analysis; type: physicochemical
Huh-7 [3] = assay: Antiproliferative activity against human Huh-7 cells assessed as inhibition of colony formation at 10 to 40 nM measured 1 to 2 weeks by human tumor clonogenic assays (HTCA); type: functional, cell-based; conditions: dose 10-40 nM, time 1-2 weeks
[4] = target: T1, DNA topoisomerase 1 (Homo sapiens) (UniProt P11387); assay: Inhibition of DNA topoisomerase 1 (unknown origin) assessed as relaxation of supercoiled plasmid pBR322 DNA at 25 to 100 uM incubated for 15 mins measured after 30 mins addition of ethidium bromide by agarose gel electrophoresis; conditions: dose 25-100 µM, time 45.0 min
T1 sequence (whole entry): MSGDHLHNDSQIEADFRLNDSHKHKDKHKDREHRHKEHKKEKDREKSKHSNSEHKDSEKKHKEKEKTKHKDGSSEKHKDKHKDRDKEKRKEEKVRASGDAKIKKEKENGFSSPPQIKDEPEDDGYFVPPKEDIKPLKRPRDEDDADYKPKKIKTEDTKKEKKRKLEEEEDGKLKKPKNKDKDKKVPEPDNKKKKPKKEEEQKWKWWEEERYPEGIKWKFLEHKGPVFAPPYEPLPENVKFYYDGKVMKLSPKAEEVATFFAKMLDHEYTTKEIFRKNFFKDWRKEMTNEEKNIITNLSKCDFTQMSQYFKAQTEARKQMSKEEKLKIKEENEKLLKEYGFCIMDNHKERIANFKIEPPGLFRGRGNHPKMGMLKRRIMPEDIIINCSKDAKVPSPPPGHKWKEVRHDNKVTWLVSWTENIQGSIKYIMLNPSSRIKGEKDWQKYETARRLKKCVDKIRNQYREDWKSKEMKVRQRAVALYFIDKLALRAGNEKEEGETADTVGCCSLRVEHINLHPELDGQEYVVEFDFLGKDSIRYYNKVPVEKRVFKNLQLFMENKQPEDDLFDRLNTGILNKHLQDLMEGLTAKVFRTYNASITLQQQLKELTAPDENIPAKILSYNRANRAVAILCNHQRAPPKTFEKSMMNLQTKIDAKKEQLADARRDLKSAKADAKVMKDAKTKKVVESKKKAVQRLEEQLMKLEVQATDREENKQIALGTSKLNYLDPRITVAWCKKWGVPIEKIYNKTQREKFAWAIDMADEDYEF

[5] = target: DNA topoisomerase II (Homo sapiens) (UniProt P11388+Q02880); assay: Inhibition of DNA topoisomerase 2 (unknown origin) assessed as relaxation of supercoiled plasmid pBR322 DNA at 25 to 100 uM incubated for 15 mins measured after 30 mins addition of ethidium bromide by agarose gel electrophoresis; type: protein assay; conditions: dose 25-100 µM
[6] = Cmax in Sprague-Dawley rat at 10 mg/kg, ip measured upto 24 hrs by LC-MS/MS analysis; type: ADME, organism-based; conditions: in vivo
[7] = MRT (0 to t) in Sprague-Dawley rat at 10 mg/kg, ip measured upto 24 hrs by LC-MS/MS analysis; type: ADME, organism-based; conditions: in vivo
Huh-7 [8] = assay: In vivo antitumor activity against human Huh-7 cells subcutaneously injected into BALB/C nude mouse assessed as tumor growth inhibition at 40 mg/kg, ip administered once other day measured after 14 days; type: functional; conditions: Huh-7, 336 h, time 14 day, read-out: TGI
Huh-7 [9] = assay: Induction of cell cycle arrest in human Huh-7 cells assessed as accumulation of cells at S phase 80 nM measured after 24 hrs by flow cytometric assay (reference value: 23.33%); type: functional
Huh-7 [10] = assay: Induction of cell cycle arrest in human Huh-7 cells assessed as accumulation of cells at G1 phase 20 nM measured after 24 hrs by flow cytometric assay (reference value: 63.01%); type: functional
Huh-7 [11] = assay: Induction of cell cycle arrest in human Huh-7 cells assessed as accumulation of cells at G1 phase 40 nM measured after 24 hrs by flow cytometric assay (reference value: 63.01%); type: functional
SK-HEP1 [12] = assay: Induction of cell cycle arrest in human SK-HEP1 cells assessed as accumulation of cells at S phase 20 nM measured after 24 hrs by flow cytometric assay (reference value: 30.04%); type: functional
SK-HEP1 [13] = assay: Induction of cell cycle arrest in human SK-HEP1 cells assessed as accumulation of cells at G2 phase 40 nM measured after 24 hrs by flow cytometric assay (reference value: 22.41%); type: functional
Huh-7 [14] = assay: Induction of apoptosis in human Huh-7 cells assessed as viable cells at 80 nM measured after 24 hrs by Annexin-V-FITC/PI analysis (reference value: 97.46%); type: functional; conditions: read-out: Activity
Huh-7 [15] = assay: Induction of apoptosis in human Huh-7 cells assessed as viable cells at 20 nM measured after 24 hrs by Annexin-V-FITC/PI analysis (reference value: 97.46%); type: functional; conditions: read-out: Activity
Huh-7 [16] = assay: Induction of apoptosis in human Huh-7 cells assessed as necrotic cells at 40 nM measured after 24 hrs by Annexin-V-FITC/PI analysis (reference value: 0.27%); type: functional
SK-HEP1 [17] = assay: Induction of apoptosis in human SK-HEP1 cells assessed as necrotic cells at 80 nM measured after 24 hrs by Annexin-V-FITC/PI analysis (reference value: 0.70%); type: functional
SK-HEP1 [18] = assay: Induction of apoptosis in human SK-HEP1 cells assessed as viable cells at 20 nM measured after 24 hrs by Annexin-V-FITC/PI analysis (reference value: 97.20%); type: functional; conditions: read-out: Activity
SK-HEP1 [19] = assay: Induction of apoptosis in human SK-HEP1 cells assessed as late apoptotic cells at 40 nM measured after 24 hrs by Annexin-V-FITC/PI analysis (reference value: 0.64%); type: functional
Huh-7 [20] = assay: Induction of apoptosis in human Huh-7 cells assessed as ROS generation by measuring DCFH2-DA stained cells at 20 nM measured after 24 hrs […] (reference value: 0.45%); type: functional
SK-HEP1 [21] = assay: Induction of apoptosis in human SK-HEP1 cells assessed as ROS generation by measuring DCFH2-DA stained cells at 20 nM measured after 24 hrs […] (reference value: 0.14%); type: functional
Huh-7 [22] = assay: Inhibition of cell migration in human Huh-7 cells at 40 nM measured for 24 hrs by scratch wound healing assay; type: functional, cell-based
Huh-7 [23] = assay: Inhibition of cell migration in human Huh-7 cells at 10 nM measured for 24 hrs by scratch wound healing assay; type: functional, cell-based
Huh-7 [24] = assay: Inhibition of cell invasion in human Huh-7 cells assessed as decrease in number of cells migration into lower compartment at 20 nM measured after 24 hrs by transwell assay; type: functional, cell-based
SK-HEP1 [25] = assay: Inhibition of cell migration in human SK-HEP1 cells at 10 nM measured for 24 hrs by scratch wound healing assay; type: functional, cell-based
[26] = Toxicity in BALB/c nude mouse subcutaneously injected with human Huh-7 cells assessed as changes in liver tissue at 10 mg/kg, ip administered once daily measured after 14 days by H and E staining based assay; type: organism-based; conditions: in vivo, 336 h, time 14 day

C[N+](C)(C)CCC(=O)Oc1ccc2[nH]c3c(c2c1)CCN1C(=O)c2cc(F)cc(F)c2N(c2cccc(F)c2)C31.[I-] (stereo unspecified)
IC50 (Huh-7 [1]): 40 nM
solubility thermodynamic at 72 h [2]: 967 µg/mL
Activity (Huh-7 [3]): Active
inhibition [4]: Active
inhibition [5]: Active
Cmax [6]: 240 ng/mL
MRT last at 24 h [7]: 4.64 h
inhibition in vivo at 40 mg/kg (Huh-7 [8]): 51.1%
Activity (Huh-7 [9]): 6.71%
Activity (Huh-7 [10]): 66.72%
Activity (Huh-7 [11]): 66.98%
Activity (SK-HEP1 [12]): 28.78%
Activity (SK-HEP1 [13]): 24.99%
viability at 0.08 µM (Huh-7 [14]): 79.7%
viability at 0.02 µM (Huh-7 [15]): 96.6%
Activity (Huh-7 [16]): 0.04%
Activity (SK-HEP1 [17]): 1.15%
viability at 0.02 µM (SK-HEP1 [18]): 97.2%
Activity (SK-HEP1 [19]): 1.31%
Activity (Huh-7 [20]): 0.73%
Activity (SK-HEP1 [21]): 0.47%
inhibition (Huh-7 [22]): Active
inhibition (Huh-7 [23]): Active
inhibition (Huh-7 [24]): Active
inhibition (SK-HEP1 [25]): Active
Activity [26]: Non-Toxic
